{"source": "patent US20110053859A1", "about": "“METHODS TO REDUCE THE EFFECTS OF SLEEP DEPRIVATION” (The U. S. Government Respresented by the Department of …, priority 2007, published 2011)", "key": {"[1]": {"tested_on": "sleep deprived (30-36 hrs) rhesus monkeys", "assay": "Multi-image DMS task after 30-36 hrs of sleep deprivation", "type": "in vivo, rhesus monkeys (Macaca mulatta)", "source_text": "(§1) Subjects: All procedures were reviewed and approved by the Institutional Animal Care and Use Committee of Wake Forest University, and performed in accordance with established practices as described in the National Institutes of Health Guide for Care and Use of Laboratory Animals. Eight adult male rhesus monkeys (Macaca mulatta) weighing (8.0-11.0 kg) were utilized in this study. They were individually housed in stainless steel cages in temperature and humidity controlled colony rooms with lighting maintained on a 0600:1800 on:off schedule and fed a diet of monkey chow supplemented by fresh fruit to maintain daily monitored body weight. Fluid intake was restricted in time and amount such that a prescribed volume of an animal's normal daily fluid intake (80 ml/kg) was received either during the behavioral testing session, or within 2 hours of being returned to the home cage.\n(§2) Behavioral Testing: Each monkey was exposed to 6 different testing conditions (Normal Vehicle, Alert orexin-A (IV and nasal), Sleep Deprivation, Sleep Deprivation+orexin-A (IV or nasal) which required 11-14 test sessions for each of the 8 monkeys. Animals were placed in a primate chair 1.5 meters in front of an LCD-front-projection screen for daily testing on a multi-image visual delayed match to sample (DMS) task (Porrino 2005) and performed 150-300 trials per session. Animals were trained to move a cursor tracked by a fluorescent marker attached to the back of the monkey's hand into the images by positioning the hand within a two dimensional coordinate system on the chair counter. Stimuli consisted of clip art images projected as 25 cm squares within a 3×3 position matrix onto a 1.0 meter×1.0 meter display. Responses to appropriate stimuli were rewarded with diluted fruit juice delivered via a sipper tube placed in front of the mouth. All animals were trained to a stable baseline on the DMS task in which delay varied randomly from (range 1-60 sec to 1-90 sec across animals) on a given trial, and the number of non-match stimuli (images) varied randomly from 2 to 8 in the Match phase of the task (Porrino 2005). As shown previously performance accuracy varied directly with duration of delay and number of nonmatch images (#images) presented in the Match phase (Hampson 2004, Porrino 2005). Each stimulus image (sample or nonmatch) was used on only one trial during a daily session and the sets of images were routinely changed every two weeks to maintain the trial unique feature of each session. Performance was monitored daily on the DMS task and there was no testing on weekends.\nSleep Deprivation Procedure: Sleep deprivation consisted of 30-36 hours of continuous sleep prevention supervised by laboratory personnel as previously verified using EEG recordings and sleep architecture to be a valid method of depriving animals of slow wave and REM sleep (Porrino 2005). Animals were maintained in a cage separate from their home cage in a continuously lighted room and kept awake with videos, music, occasional treats, gentle cage shaking, and interaction with technicians until their usual daily testing time. Animals were allowed 10 days between sleep deprivation episodes and were allowed to sleep after testing on each day following the 30-36 hr sleep deprivation episode. There were no residual effects of sleep deprivation on testing 24 hrs after the sleep deprivation procedure and animals returned to there normal sleep patterns on the next night following the sleep deprivation procedure.\nDrug Administration: orexin-A (hypocretin-1) was mixed in saline for IV injections and in sterile water for nasal application. For IV administration orexin-A, (#003-30, Phoenix Pharmaceuticals, Mountain View, Calif.) was dissolved in physiological saline as a stock solution of 200 μg/ml which was then diluted in saline to inject 3 different doses of 2.5, 5.0 and 10.0 μg/kg via an indwelling catheter placed in either the femoral or jugular vein using a glass syringe. […]"}, "drowsy monkeys": {"tested_on": "drowsy monkeys", "assay": "DMS task in drowsy monkeys tested at the end of their normal day (4 PM)", "type": "in vivo", "details": "for DMS performance at normal testing time: normal testing conditions (alert), nasal; for DMS performance impairment (high load and extended delay trials) in drowsy condition: tested at 4 PM, nasal spray 1.0 μg", "experimental": "Monkeys were tested at the end of their normal day 12 hr day at 4 PM, approximately 6-8 hours later than their normal testing period, in what can be considered a “drowsy” condition just prior to the onset of their dark cycle at 6 PM (Price 2003, Thomas 2000). At this time animals were impaired in performance relative to their normal testing times (high cognitive load: F(1.72)=8.49. p<0.001; extended delays-very high cognitive load: F(1.72)=5.84, p<0.01) during the day. […] F refers to an analysis of variance and the numbers in parentheses are the degrees of freedom, essentially the number of subjects and conditions (−1). The F value is the an indication of the effect size as measured by the analysis of variance, which is translated into a probability (p) value. This is a standard test for significance. […] Performance was decreased in animals administered nasal sprays of saline at this time of testing. Nasal orexin-A administered at 4 PM improved performance back to normal levels."}, "[2]": {"tested_on": "alert non sleep deprived monkeys", "assay": "Multi-image delayed match to sample (DMS) task in alert non-sleep-deprived monkeys", "type": "in vivo, rhesus monkeys (Macaca mulatta)", "details": "for DMS performance vs saline control: IV 10.0 μg/kg, all 8 monkeys", "source_text": "as §1, §2\nDrug Administration: orexin-A (hypocretin-1) was mixed in saline for IV injections and in sterile water for nasal application. […]"}, "sleep deprived monkeys": {"tested_on": "sleep deprived monkeys", "assay": "PET (FDG) local cerebral glucose metabolism (CMRglc) during DMS task in sleep deprived monkeys", "type": "in vivo, rhesus monkeys (Macaca mulatta)", "source_text": "Measurement of Local Rates of Cerebral Glucose Metabolism: Measurement of rates of cerebral glucose metabolism (CMRglc) were made in 8 monkeys in four different conditions: normal alert DMS task vehicle; DMS task-Sleep Deprivation vehicle; DMS task-Sleep Deprivation+orexin A (IV or nasal). All animals (n=8) were acclimated to the PET scan sessions to the extent that performance was not influenced by the injection or blood collection procedures. On the day of the scan the monkeys were placed in primate chairs and received a 30 sec injection of 3-5 mCi of [^18]-2-deoxy-2-fluoro-D-glucose (FDG). The DMS task was initiated 5-10 min later and was performed for a total of 40 minutes (80-100) trials while the FDG was incorporated and taken up by cells during performance in the DMS task. After 40 min animals were then anesthetized with ketamine (15 mg/kg, iv) and transported to the PET scanner. Following scan acquisition, monkeys were transported back to their home cages and continuously monitored until fully recovered. Effects of anesthesia and other factors associated with the PET scanning procedures were previously assessed and shown to not influence measures of isotope uptake.\nTo calculate glucose uptake tracer concentrations were measured in blood samples using an automated gamma well counter from three blood samples collected from the femoral vein at 10 minutes prior to tracer injection and 8 and 42 minutes post-injection. A population-averaged FDG blood curve (calculated for monkey) was scaled to the measured blood curve for the time period from injection to the end of the PET scan (Sokoloff 1977). Data were transformed to CMRglc based on the operational equation (Phelps 1979, Kennedy 1978). Rate constants (k1, k2, and k3) and lumped constant as determined in monkey by Kennedy et. al. 1978, along with a k4 value used in human studies (Phelps 1979). PET scans were performed with a General Electric (GE) Advance NXi PET scanner with a resolution of 4 mm and consisted of a five minute transmission scan acquired in 2D mode, followed by a ten minute emission scan acquired in 3D mode. The image reconstruction of the 3D data used the 3D-reprojection method with full quantitative corrections and smoothed using a 4 mm Gaussian filter transaxially and then segmented. Data were corrected for attenuation and reconstructed into 128 by 128 matrices using a Hanning filter with a 4mm cutoff transaxially and a ramp filter with an 8.5 mm cutoff axially.\nPET data were analyzed with Statistical Parametric Mapping (SPM99) software (http://www.fil.ion.ucl.ac.uk/spm/) implemented in MATLAB (MathWorks, Natick, Mass.). Reconstructed images for each scan from each of the 8 monkeys were co-registered to corresponding structural MR images obtained on a 1.5-T MR scanner (GE Medical Systems, Milwaukee, Wis.) using automated image registration (Black 2001) and then transformed spatially into a standard space with an FDG template for rhesus monkeys constructed in our laboratory based on procedures of Black and colleagues (Paxinos 2003). Resultant images were smoothed using a 2 mm isotropic Gaussian kernel with a voxel size of 1×1×1 mm. Scans were normalized for differences in global activity by proportional scaling. Effects at each voxel were estimated according to the general linear model using the multi-subject conditions and covariates option in SPM. Statistical maps were created for comparisons of the […] different experimental conditions: Normal Alert Vehicle vs. Normal Alert orexin-A (IV or nasal); Sleep Deprivation vs. Normal Alert Vehicle; Sleep Deprivation vs. Sleep Deprivation+orexin-A (IV or nasal) and Sleep Deprivation+orexin-A IV vs. Sleep Deprivation+orexin-A nasal. Exploratory analyses used a minimum voxel height (magnitude) threshold of p<0.01 and a minimum cluster size of 50 voxels. […]"}, "[3]": {"details": "nasal vs IV in the same monkeys"}}, "note": "Entries after “also recorded” stand apart in the source; their conditions may differ.", "data": [{"substance": "orexin-A: 33 residue neuropeptide hypocretin-1, residues 34-66 of human prepro-orexin; bought from Phoenix Pharmaceuticals (#003-30) (QPLPDCCRQKTCSCRLYELLHGAGNHAAGILTL; Orexin-A; UniProt O43612 34-66, looked up)", "values": [{"measurement": "Monkeys that failed to show significant improvement on high load trials", "setting": "[1]; IV 10.0 μg/kg", "value": "one of 8"}, {"measurement": "DMS performance on high cognitive load trials vs sleep deprived sessions", "setting": "[1]; IV 5.0 and 10.0 μg/kg", "value": "significantly improved relative to sleep deprived sessions"}, {"measurement": "DMS performance on low cognitive load trials vs alert condition", "setting": "[1]; IV 5.0 and 10.0 μg/kg", "value": "performed with the same efficiency as in the alert condition"}, {"measurement": "DMS performance vs alert non-sleep deprived levels", "setting": "[1]; IV 5.0 and 10.0 μg/kg", "value": "neither dose restored performance to alert non-sleep deprived levels"}, {"measurement": "DMS performance vs sleep deprived saline sessions", "setting": "[1]; IV 5.0 and 10.0 μg/kg", "value": "systematically increased performance; also recorded: partially reversed the detrimental effects on performance"}, {"measurement": "DMS performance on low cognitive load trials, nasal vs IV", "setting": "[1]; nasal 1.0 μg vs IV 10.0 μg/kg", "value": "no difference between IV and nasal orexin-A"}, {"measurement": "DMS performance overall and on high cognitive load trials, nasal vs IV", "setting": "[1]; nasal 1.0 μg vs IV 10.0 μg/kg", "value": "significantly more effective"}, {"measurement": "Overall DMS performance vs sleep deprivation saline", "setting": "[1]; nasal 1.0 μg, overall, low and high load trials", "value": "reversed the detrimental effects of 30-36 hr sleep deprivation"}, {"measurement": "DMS performance on high cognitive load trials", "setting": "[1]; nasal spray 1.0 μg", "value": "elevated performance above normal alert levels"}, {"measurement": "DMS performance on low cognitive load trials", "setting": "[1]; nasal spray 1.0 μg", "value": "returning performance to normal alert levels"}, {"measurement": "DMS performance on extended delay trials", "setting": "[1]; nasal spray 1.0 μg, extended delays (90-120 sec)", "value": "significantly above extended delay trials in both control sleep deprived and normal alert sessions; also recorded: significantly improved"}, {"measurement": "DMS performance at normal testing time", "setting": "drowsy monkeys", "value": "no effect on performance"}, {"measurement": "DMS performance at normal testing time", "setting": "drowsy monkeys; listed as hyocretin", "value": "no effect on cognitive performance"}, {"measurement": "DMS performance impairment (high load and extended delay trials) in drowsy condition", "setting": "drowsy monkeys", "value": "reversed completely"}, {"measurement": "DMS performance impairment (high load and extended delay trials) in drowsy condition", "setting": "drowsy monkeys; listed as hyocretin", "value": "reverses cognitive deficits"}, {"measurement": "DMS performance vs saline control", "setting": "[2]", "value": "slight but significant performance impairment"}, {"measurement": "DMS performance vs saline control", "setting": "[2]; listed as Orexin-A", "value": "significant reduction"}, {"measurement": "DMS performance, dose relation", "setting": "[2]; IV 2.5, 5.0 and 10.0 μg/kg", "value": "dose-related trend toward reduced performance"}, {"measurement": "DMS performance in normal alert sessions", "setting": "[2]; nasal spray 1.0 μg", "value": "little or no effect on DMS performance; also recorded: no significant effects"}, {"measurement": "Local CMRglc in DPFC vs sleep deprivation vehicle", "setting": "sleep deprived monkeys; IV 10.0 μg/kg", "value": "significant increases"}, {"measurement": "Local CMRglc in DStr vs sleep deprivation vehicle", "setting": "sleep deprived monkeys; IV 10.0 μg/kg", "value": "significant increases"}, {"measurement": "Local CMRglc in MTL vs sleep deprivation vehicle", "setting": "sleep deprived monkeys; IV 10.0 μg/kg", "value": "significant decrease"}, {"measurement": "Local CMRglc in Thal vs sleep deprivation vehicle", "setting": "sleep deprived monkeys; IV 10.0 μg/kg", "value": "significant increases"}, {"measurement": "Local CMRglc in DPFC vs sleep deprivation vehicle", "setting": "sleep deprived monkeys; nasal spray mist 1.0 μg", "value": "significantly elevated bilaterally"}, {"measurement": "Local CMRglc in MTL vs sleep deprivation vehicle", "setting": "sleep deprived monkeys; nasal spray mist 1.0 μg", "value": "significant decreases"}, {"measurement": "Change of CMRglc in DPFC, nasal vs IV", "setting": "sleep deprived monkeys; [3]", "value": "greater increases in CMRglc bilaterally"}, {"measurement": "Change of CMRglc in DStr, nasal vs IV", "setting": "sleep deprived monkeys; [3]", "value": "greater increases in CMRglc bilaterally"}, {"measurement": "Change of CMRglc in MTL, nasal vs IV", "setting": "sleep deprived monkeys; [3]", "value": "decreased CMRglc"}, {"measurement": "Change of CMRglc in Thal, nasal vs IV", "setting": "sleep deprived monkeys; [3]", "value": "greater increases in CMRglc bilaterally"}]}]}
